From PMC7265341, “Quantifying CDK inhibitor selectivity in live cells” (Nature Communications, 2020)

Target: CDK19/Cyclin C (Homo sapiens, UniProt Q9BWU1)
Test: cell-based

Sequence of CDK19/Cyclin C (Q9BWU1 whole entry): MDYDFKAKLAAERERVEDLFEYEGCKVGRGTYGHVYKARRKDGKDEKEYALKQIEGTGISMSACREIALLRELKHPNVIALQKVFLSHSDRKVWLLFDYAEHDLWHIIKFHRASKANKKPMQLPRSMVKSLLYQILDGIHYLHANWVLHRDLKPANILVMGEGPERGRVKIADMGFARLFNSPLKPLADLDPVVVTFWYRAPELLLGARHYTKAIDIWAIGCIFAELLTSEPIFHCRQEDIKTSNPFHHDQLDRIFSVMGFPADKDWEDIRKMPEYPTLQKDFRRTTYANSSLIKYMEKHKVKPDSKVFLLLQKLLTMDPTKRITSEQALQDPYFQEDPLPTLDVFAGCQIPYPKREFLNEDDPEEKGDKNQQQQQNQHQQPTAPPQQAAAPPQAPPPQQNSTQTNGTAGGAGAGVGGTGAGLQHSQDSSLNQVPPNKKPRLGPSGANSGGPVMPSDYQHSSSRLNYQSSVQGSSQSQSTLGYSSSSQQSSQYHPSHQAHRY
Sequence of CDK19/Cyclin C (P24863 whole entry partner): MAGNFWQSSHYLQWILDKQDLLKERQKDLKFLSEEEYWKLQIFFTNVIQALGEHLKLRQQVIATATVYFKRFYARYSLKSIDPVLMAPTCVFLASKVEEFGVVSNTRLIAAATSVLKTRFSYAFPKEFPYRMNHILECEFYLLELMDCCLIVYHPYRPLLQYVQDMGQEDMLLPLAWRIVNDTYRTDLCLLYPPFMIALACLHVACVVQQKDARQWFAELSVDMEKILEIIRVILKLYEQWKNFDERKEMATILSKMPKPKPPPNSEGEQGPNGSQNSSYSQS

CCN1CCN(Cc2ccc(NC(=O)Nc3ccc(Oc4cc(NC)ncn4)cc3)cc2C(F)(F)F)CC1 [AST-487]
IC50: 5.9 nM
